# Experimental data reported in PubChem BioAssay AID2060908 (Molecular Pharmacology Branch, DTP, NCI, 2025).
# Several values for one entry are separate records, joined by “and”; a condition that tells them apart may be missing. Identical values can stand only once.
# Test system: 186277-243-T-J2-PDC complex spheroids, viability
# Assay: Anticancer human tumor 186277-243-T-J2-PDC patient-derived colon adenocarcinoma cell line growth inhibition [RAS]
# Settings: for viability, T/C: stronger effect = lower value
# In short: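 Tumour cells grown as complex spheroids with HUVEC endothelial cells and mesenchymal stem cells, treated with RAS pathway inhibitor combinations. Each agent spans half-log steps from near clinical Cmax, or 10 microM where Cmax is unknown.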
# [1] = curve of first compound, second compound 0.0316 µM
# [2] = curve of first compound, second compound 0.1 µM
# [3] = curve of first compound, second compound 0.316 µM
# [4] = curve of first compound, second compound 1 µM
# [5] = curve of first compound, second compound 3.16 µM
# [6] = curve of first compound, second compound 10 µM
# [7] = second compound 0.0316 µM, first compound 0.00316 µM
# [8] = second compound 0.0316 µM, first compound 0.01 µM
# [9] = second compound 0.0316 µM, first compound 0.0316 µM
# [10] = second compound 0.0316 µM, first compound 0.1 µM
# [11] = second compound 0.0316 µM, first compound 0.316 µM
# [12] = second compound 0.0316 µM, first compound 1 µM
# [13] = second compound 0.1 µM, first compound 0.00316 µM
# [14] = second compound 0.1 µM, first compound 0.01 µM
# [15] = second compound 0.1 µM, first compound 0.0316 µM
# [16] = second compound 0.1 µM, first compound 0.1 µM
# [17] = second compound 0.1 µM, first compound 0.316 µM
# [18] = second compound 0.1 µM, first compound 1 µM
# [19] = second compound 0.316 µM, first compound 0.00316 µM
# [20] = second compound 0.316 µM, first compound 0.01 µM
# [21] = second compound 0.316 µM, first compound 0.0316 µM
# [22] = second compound 0.316 µM, first compound 0.1 µM
# [23] = second compound 0.316 µM, first compound 0.316 µM
# [24] = second compound 0.316 µM, first compound 1 µM
# [25] = second compound 1 µM, first compound 0.00316 µM
# [26] = second compound 1 µM, first compound 0.01 µM
# [27] = second compound 1 µM, first compound 0.0316 µM
# [28] = second compound 1 µM, first compound 0.1 µM
# [29] = second compound 1 µM, first compound 0.316 µM
# [30] = second compound 1 µM, first compound 1 µM
# [31] = second compound 3.16 µM, first compound 0.00316 µM
# [32] = second compound 3.16 µM, first compound 0.01 µM
# [33] = second compound 3.16 µM, first compound 0.0316 µM
# [34] = second compound 3.16 µM, first compound 0.1 µM
# [35] = second compound 3.16 µM, first compound 0.316 µM
# [36] = second compound 3.16 µM, first compound 1 µM
# [37] = second compound 10 µM, first compound 0.00316 µM
# [38] = second compound 10 µM, first compound 0.01 µM
# [39] = second compound 10 µM, first compound 0.0316 µM
# [40] = second compound 10 µM, first compound 0.1 µM
# [41] = second compound 10 µM, first compound 0.316 µM
# [42] = second compound 10 µM, first compound 1 µM
# 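Also: spheroids exposed to compounds for 7 days before viability read.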
structure (smiles),measurement,setting,value
C=CC(=O)N1CCN(c2nc(OCC3CCCN3C)nc3c(F)c(-c4nc(N)cc(C)c4C(F)(F)F)c(Cl)cc23)C(C)C1 (configuration not stated) + C#Cc1c(F)ccc2cc(O)cc(-c3ncc4c(N5CC6CCC(C5)N6)nc(OCC56CCCN5CC(F)C6)nc4c3F)c12,IC50,[1],> 1000 nM
same,IC50,[2],325 nM
same,IC50,[3],< 3.16 nM
same,IC50,[4],< 3.16 nM
same,IC50,[5],< 3.16 nM
same,IC50,[6],< 3.16 nM
same,"viability, T/C",[7],75.1%
same,"viability, T/C",[8],97.6%
same,"viability, T/C",[9],84.3%
same,"viability, T/C",[10],78.3%
same,"viability, T/C",[11],79.5%
same,"viability, T/C",[12],54.6%
same,"viability, T/C",[13],69.6%
same,"viability, T/C",[14],73.7%
same,"viability, T/C",[15],60.4%
same,"viability, T/C",[16],58.4%
same,"viability, T/C",[17],53.1%
same,"viability, T/C",[18],35.8%
same,"viability, T/C",[19],24.2%
same,"viability, T/C",[20],35.7%
same,"viability, T/C",[21],37.8%
same,"viability, T/C",[22],25.2%
same,"viability, T/C",[23],33.2%
same,"viability, T/C",[24],24.2%
same,"viability, T/C",[25],18.1%
same,"viability, T/C",[26],19.1%
same,"viability, T/C",[27],19.1%
same,"viability, T/C",[28],18.6%
same,"viability, T/C",[29],19%
same,"viability, T/C",[30],15.5%
same,"viability, T/C",[31],9.97%
same,"viability, T/C",[32],14.1%
same,"viability, T/C",[33],12.5%
same,"viability, T/C",[34],13.3%
same,"viability, T/C",[35],15.5%
same,"viability, T/C",[36],10.9%
same,"viability, T/C",[37],8.29%
same,"viability, T/C",[38],9.21%
same,"viability, T/C",[39],11.5%
same,"viability, T/C",[40],11%
same,"viability, T/C",[41],11.3%
same,"viability, T/C",[42],8.56%
CC1(C)CCC(Nc2ncc(C(F)(F)F)c(-c3c[nH]c4c(P(C)(C)=O)c(C#N)ccc34)n2)CN1 (configuration not stated),"viability, T/C",compound 0.000949 µM,89.9% [middle of 4 runs]
same,"viability, T/C",compound 0.003 µM,102% and 101% (2×) and 97%
same,"viability, T/C",compound 0.00949 µM,99.2% [middle of 4 runs]
same,"viability, T/C",compound 0.0949 µM,60.8% and 56.4% (2×) and 71.4%
same,"viability, T/C",compound 0.3 µM,63.9% [middle of 4 runs]
same,IC50,curve of compound,> 300 nM and 287 nM and 197 nM
O=C(c1ccc(F)c(F)c1Nc1ccc(I)cc1F)N1CC(O)([C@@H]2CCCCN2)C1 + C#Cc1c(F)ccc2cc(O)cc(-c3ncc4c(N5CC6CCC(C5)N6)nc(OCC56CCCN5CC(F)C6)nc4c3F)c12,IC50,[1],20.9 nM
same,IC50,[2],3.25 nM
same,IC50,[3],< 3.16 nM
same,IC50,[4],< 3.16 nM
same,IC50,[5],< 3.16 nM
same,IC50,[6],< 3.16 nM
same,"viability, T/C",[7],72.4%
same,"viability, T/C",[8],56.3%
same,"viability, T/C",[9],47.1%
same,"viability, T/C",[10],15.4%
same,"viability, T/C",[11],5.69%
same,"viability, T/C",[12],6.25%
same,"viability, T/C",[13],50%
same,"viability, T/C",[14],40.8%
same,"viability, T/C",[15],20%
same,"viability, T/C",[16],9.26%
same,"viability, T/C",[17],6.29%
same,"viability, T/C",[18],3.94%
same,"viability, T/C",[19],18.9%
same,"viability, T/C",[20],17.5%
same,"viability, T/C",[21],10.5%
same,"viability, T/C",[22],9.19%
same,"viability, T/C",[23],4.54%
same,"viability, T/C",[24],3.72%
same,"viability, T/C",[25],12.6%
same,"viability, T/C",[26],9.81%
same,"viability, T/C",[27],8.46%
same,"viability, T/C",[28],6.3%
same,"viability, T/C",[29],4.16%
same,"viability, T/C",[30],3.53%
same,"viability, T/C",[31],9%
same,"viability, T/C",[32],9.32%
same,"viability, T/C",[33],7.86%
same,"viability, T/C",[34],5.98%
same,"viability, T/C",[35],3.91%
same,"viability, T/C",[36],3.32%
same,"viability, T/C",[37],6.85%
same,"viability, T/C",[38],7.33%
same,"viability, T/C",[39],5.34%
same,"viability, T/C",[40],3.85%
same,"viability, T/C",[41],2.37%
same,"viability, T/C",[42],1.61%
NC1c2ccccc2OC12CCN(c1cnc3c(N4CCCc5ncccc54)n[nH]c3n1)CC2 (configuration not stated) + CCn1c(-c2cccnc2C(C)OC)c2c3cc(ccc31)N1CCOC(CC(NC(=O)C(C(C)C)N(C)C(=O)C3(F)CCN(C(=O)C#CC(C)(C)N(C)C)CC3)C(=O)N3CCCC(N3)C(=O)OCC(C)(C)C2)C1,IC50,"curve of first compound, second compound 0.000949 µM",> 10000 nM
same,IC50,"curve of first compound, second compound 0.003 µM",> 10000 nM
same,IC50,"curve of first compound, second compound 0.00949 µM",> 10000 nM
same,IC50,"curve of first compound, second compound 0.03 µM",> 10000 nM
same,IC50,"curve of first compound, second compound 0.0949 µM",> 10000 nM
same,IC50,"curve of first compound, second compound 0.3 µM",4090 nM
same,"viability, T/C","second compound 0.000949 µM, first compound 0.0316 µM",84.6%
same,"viability, T/C","second compound 0.000949 µM, first compound 0.1 µM",102%
same,"viability, T/C","second compound 0.000949 µM, first compound 0.316 µM",114%
same,"viability, T/C","second compound 0.000949 µM, first compound 1 µM",122%
same,"viability, T/C","second compound 0.000949 µM, first compound 3.16 µM",109%
same,"viability, T/C","second compound 0.000949 µM, first compound 10 µM",70.3%
same,"viability, T/C","second compound 0.003 µM, first compound 0.0316 µM",108%
same,"viability, T/C","second compound 0.003 µM, first compound 0.1 µM",96.5%
same,"viability, T/C","second compound 0.003 µM, first compound 0.316 µM",119%
same,"viability, T/C","second compound 0.003 µM, first compound 1 µM",119%
same,"viability, T/C","second compound 0.003 µM, first compound 3.16 µM",104%
same,"viability, T/C","second compound 0.003 µM, first compound 10 µM",74.6%
same,"viability, T/C","second compound 0.00949 µM, first compound 0.0316 µM",100%
same,"viability, T/C","second compound 0.00949 µM, first compound 0.1 µM",110%
same,"viability, T/C","second compound 0.00949 µM, first compound 0.316 µM",121%
same,"viability, T/C","second compound 0.00949 µM, first compound 1 µM",119%
same,"viability, T/C","second compound 0.00949 µM, first compound 3.16 µM",104%
same,"viability, T/C","second compound 0.00949 µM, first compound 10 µM",66.9%
same,"viability, T/C","second compound 0.03 µM, first compound 0.0316 µM",111%
same,"viability, T/C","second compound 0.03 µM, first compound 0.1 µM",89%
same,"viability, T/C","second compound 0.03 µM, first compound 0.316 µM",117%
same,"viability, T/C","second compound 0.03 µM, first compound 1 µM",114%
same,"viability, T/C","second compound 0.03 µM, first compound 3.16 µM",105%
same,"viability, T/C","second compound 0.03 µM, first compound 10 µM",76%
same,"viability, T/C","second compound 0.0949 µM, first compound 0.0316 µM",102%
same,"viability, T/C","second compound 0.0949 µM, first compound 0.1 µM",94.1%
same,"viability, T/C","second compound 0.0949 µM, first compound 0.316 µM",112%
same,"viability, T/C","second compound 0.0949 µM, first compound 1 µM",91.2%
same,"viability, T/C","second compound 0.0949 µM, first compound 3.16 µM",83.4%
same,"viability, T/C","second compound 0.0949 µM, first compound 10 µM",60.8%
same,"viability, T/C","second compound 0.3 µM, first compound 0.0316 µM",94.5%
same,"viability, T/C","second compound 0.3 µM, first compound 0.1 µM",88.5%
same,"viability, T/C","second compound 0.3 µM, first compound 0.316 µM",75.5%
same,"viability, T/C","second compound 0.3 µM, first compound 1 µM",65.9%
same,"viability, T/C","second compound 0.3 µM, first compound 3.16 µM",54.6%
same,"viability, T/C","second compound 0.3 µM, first compound 10 µM",38.3%
